In general, inhibition refers to how much of the control response was suppressed. High values mean strong suppression, low ones little suppression.

The test system of experiment [1] is poly(ADP-ribose [PAR]) formation in peripheral blood mononuclear cells (PBMCs). Description: PAR inhibition in PBMCs (ELISA). Format: in vivo. The following applies: Homo sapiens, PBMC; sustained at doses of 10 mg BID or higher. As for the experimental part:
Pamiparib in plasma was measured using a validated liquid chromatography-tandem–mass spectrometry assay with a lower limit of quantification of 1.0 ng/mL. The collection schedule for blood samples used to assess the PK profile is presented in the Supplemental Appendix. Summary PK parameters, including area under the concentration-time curve from time 0 to 9 h (AUC0-9) or infinity (AUC0-inf), maximal plasma concentration (Cmax) and time to maximal plasma concentration (Tmax), were estimated. The pharmacodynamic (PD) activity of pamiparib was explored through the evaluation of poly(ADP-ribose [PAR]) formation in peripheral blood mononuclear cells (PBMCs) after pamiparib administration. The schedule for blood sample collection (PK and PBMCs) and additional assessment information for PAR levels in PBMCs and pharmacodynamic activity is presented in the Supplemental Appendix. Antitumor activity was assessed by radiographic imaging (computed tomography or magnetic resonance imaging) during screening, within 28 days of first pamiparib dose, every 6 weeks in the first 12 months and every 9 weeks thereafter.
Time-matched blood samples (PK and PBMCs) were obtained on Day 1 (predose and 4 hours postdose) and Day 17 (4 hours postdose) of Cycle 1. The PAR levels in PBMCs were measured by a validated ELISA assay using a commercial PARP pharmacodynamic assay kit (Trevigen, Gaithersburg, MD). […]
Background: An ELISA detects its analyte on a solid surface through an enzyme-linked reagent.

For experiment [2], the system named is ovarian cancer. The settings on record: Phase 1 study in China (NCT03333915), high-grade ovarian cancer refractory or resistant to platinum; cited from earlier work.

Compound `C[C@]12CCCN1CC1=NNC(=O)c3cc(F)cc4[nH]c2c1c34` [pamiparib] had an inhibition at 10 mg in experiment [1] of approximately 80%. Besides, in experiment [2], the Clinical benefit rate was 62.5% and the ORR is 25.0%.

The record behind these values is article PMC8854719, “Phase 1A/1B dose-escalation and -expansion study to evaluate the safety, pharmacokinetics, food effects and antitumor activity of pamiparib in advanced solid tumours” (British Journal of Cancer, 2021).
